Assay results: US20260083126A1, “ANTIMICROBIAL COMPOSITIONS” (AHV International B.V., priority 2022, published 2026)
Entries after “also recorded” stand apart in the source; their conditions may differ.

What was measured:
[1] = system: Staphylococcus aureus LUH14616 mature biofilms; assay: Biofilm eradication assay, 7-day mature biofilms; type: cell-based; settings: 7-day mature biofilm
Procedure: Biofilm eradication assay. The assay to reduce bacterial counts in mature biofilms was assessed as described earlier (Scheper H J, Wubbolts J M, Verhagen J A M, de Visser A W, van der Wal R J P, Visser L G, de Boer M J J G, and Nibbering P H. SAAP-148 eradicates MRSA persisters within mature biofilm models simulating prosthetic joint infection. Front. Microbiol. 12:625952. Doi: 10.3389/fmicb.2021.625952. eCollection 2021) with a single modification, i.e., the biofilms were exposed daily to AM-8 for up to 4 consecutive days. Briefly, approximately 1×10^7 CFU logarithmic phase bacteria in BHI were cultured in a 96-well flat-bottom polystyrene microplate sealed with breathable seal for 7 days. Next, mature biofilms were washed twice with PBS, then exposed for 24 hrs to AM-8 or as control the diluent of this compound. Hereafter the biofilms were washed and either re-exposed to AM-8/its diluent for another day or—in case of termination of the daily exposures-sonicated for microbiological quantification of the number of viable bacteria. Results are expressed as the number of surviving bacteria at the various days of exposure. Experiment was performed in triplicate.

[2] = system: AMR Staphylococcus aureus LUH14616 persisters; assay: Anti-persister experiment, antibiotics-exposed mature biofilm; type: cell-based; settings: after 3 days rifampicin and ciprofloxacin, 24 hrs exposure, FIG. 25
Procedure: Experimental design. The capacity of AM-2 (Bis(4-chlorophenyl) disulfide) and AM-8 to reduce bacterial counts in mature biofilms was assessed as described earlier (Scheper et al (2021) Scheper H, Wubbolts J M, Verhagen J A M, de Visser A W, van der Wal RJJP, Visser L G, de Boer M J G, and Nibbering P H. SAAP-148 eradicates MRSA persisters within mature biofilm models simulating prosthetic joint infection. Front. Microbiol. 12:625952. Doi: 10.3389/fmicb.2021.625952. eCollection 2021) with one modification, i.e., the biofilms were exposed daily to the compounds for up to 4 consecutive days. Briefly, antimicrobial resistant (AMR) Staphylococcus aureus LUH14616 were cultured to mid-log phase in tryptic soy broth (TSB; Oxoid Ltd, Basingstoke, UK) at 37° C. and 200 rpm, centrifuged for 10 min at 3,000 rpm and then resuspended in brain heart infusion broth (BHI; Oxoid Ltd, Basingstoke, UK). Next, approximately 1×10^7 CFU bacteria in BHI were cultured in a 96-well flat-bottom polystyrene microplate sealed with breathable seal for 7 days. […] To take possible slow-growing bacteria into account we analyzed the bacterial plates again after a week. Results are expressed as the number of surviving bacteria (CFU/ml).

[3] = solubility observed when preparing stock solutions; type: physicochemical; settings: in water / medium; stock of 2 mM feasible with Tween80 and DMSO
Procedure: Hereafter, the stock solutions of the compounds were used in three repetitions in a minimal inhibitory concentration (MIC) assay at a 2-fold dilution range with various bacteria from the gram-positive and gram-negative group and a yeast, Candida albicans. The concentrations that show only less than 10% growth after 24 h were considered the MIC90-values, whereas the concentrations that show 50% growth after 24 h when compared to the bacterial growth control were considered the MIC50-values. Escherichia coli and Staphylococcus aureus were used as representatives for a gram-negative bacteria and gram-positive bacteria, respectively. Furthermore, the yeast C. albicans was also tested.
Conclusion and discussion. […] With the addition of solvents like Tween80 and DMSO a stock solution in medium of 2 mM was feasible. This allowed a maximum of testing concentration of 1 mM. […] Therefore, with the application of solvents a maximum testing concentration of 0.575 mM was possible. If the real growth-inhibiting concentration (MIC90) lies above these maximum assay concentrations, then it would not be detected in this assay.

CC(C)SS(=O)(=O)C(C)C [Di-isopropyl thiosulfonate]
bacterial counts in mature biofilms, multiple daily exposures ([1]; daily exposure up to 4 days, FIG. 24, listed as AM-8): dose-dependently significantly reduced the bacterial counts in mature biofilms; also recorded: able to eliminate all bacteria within biofilms | biofilm reducing effect of a single dose ([1]; dose range study, results not shown): increased in time without fully eradicating the bacteria within the biofilm

Clc1ccc(SSc2ccc(Cl)cc2)cc1 [Bis (4-chlorophenyl) disulfide, Bis(4-chlorophenyl) disulfide]
effect on persisters within antibiotics-exposed mature biofilm [2]: at the highest dose was effectively against persisters | solubility (observed) [3]: low solubility
